Reference: patent US20140243401A1, “METHODS OF SCREENING COMPOUNDS THAT ARE CYTOTOXIC TO TUMOR CELLS AND METHODS OF TREATING TUMOR CELLS USING SUCH COMPOUND” (The Johns Hopkins University, priority 2010, published 2014)
≈ marks a conversion by molar mass, not a printed value. Read-outs that look alike come from different tables or passages of the source.

What was measured:
MCF7 cells [1] = experiment: cellular ATP level, bioluminescence; format: cell-based, human
Method: As mitochondria serve as the energy production center of the cell, their main purpose is the generation of ATP. As a functional readout, cellular ATP levels may be measured to obtain an indication of mitochondrial status upon compound treatment. MCF-7 cells were cultured the standard medium, and ATP levels were measured by chemiluminescence.
MCF7 human breast cancer cells cultured in DMEM containing 5 mM glucose medium with 10% fetal calf serum, 0.01 mg/ml insulin and 1% penicillin/streptomycin. Cells were plated in 24-well cell culture plates at 2×10^5 per well overnight. After drug treatment, cells were lysed using 500 μl of TE buffer (4 mM Tris, 0.25 mM EDTA, pH 7.4) and boiled at 95° C. for 7 min. ATP levels were measured within the linear range using the ATP BioLuminescence Kit CLSII (Roche) by following the manufacture's recommendation. Luminescence was detected using PerkinElmer Victor 1420.
Determination of the effect on cellular ATP level was carried out using the procedure described above. Cells were plated in 24 well cell culture plates at 2×10^5 per well overnight. Cells were cultured in 1 mM or 5 mM glucose at either 1% or 21% (ambient) oxygen levels. […] ATP levels were measured within the linear range using the ATP Bioluminescence Kit CLSII (Roche) by following the manufacture's recommendation. Luminescence was detected using PerkinElmer Victor 1420.

[2] = test system: Human ovarian cancer cell lines; experiment: XTT cytotoxicity assay, human ovarian cancer cell lines; format: cell-based; settings: 2 human ovarian cancer cell lines, read-out: LC50 (the source's name)
Method: Cytotoxicity can be easily measured using XTT assays, which provide an indication of mitochondrial activity. The XTT assay is a non-radioactive alternative for the [^51Cr] release cytotoxicity assay. XTT is a tetrazolium salt that is reduced to a formazan dye only by metabolically active, viable cells. The reduction of XTT is measured spectrophotometrically as OD490-OD650. Thus, cells that are actively metabolizing will form reaction product when subjected to XTT measurement.
For this experiment, cells were cultured under standard culture conditions. MCF7 human breast cancer cells were cultured in DMEM containing 5 mM glucose medium with 10% fetal calf serum, 0.01 mg/ml insulin and 1% penicillin/streptomycin. To measure the cytotoxicity of specific compounds against cancer cells, 9×10^3 MCF7 cells were plated per well in 96-well plates. Following overnight culture, the compounds, dissolved in DMSO, were added to the wells in 1 μl volume at specified concentrations. Vehicle controls were run for each experiment. Each condition was run in triplicate. […] Plates were read at OD490 on a PerkinElmer Victor 1420. […]
Using the XTT assay, LC50 values for C31 were determined for numerous human cancer cell lines and human hepatocytes, as shown in the following table: […]

MCF7 cells [3] = experiment: JC-1 staining, mitochondrial membrane potential in MCF7 cells; format: cell-based, human
Excerpt: JC-1 staining is an indicator of mitochondrial membrane potential; with this assay, mitochondria within cells stained with this fluorescent dye emit a wavelength in the red spectrum when mitochondrial membrane potential is intact. When mitochondria are depolarized, the wavelength of the spectrum emitted changes to green. Therefore, the ratio of red/green fluorescence will give an indication of the intactness of the membrane potential of mitochondria, and thus mitochondrial function.
MCF7 cells were cultured in 24-well plates at 1×10^4 per well and incubated overnight. Following drug inhibition the medium was removed and 1 μg/ml JC-1 (Molecular Probes) in DPBS was added to the cells. Plates were incubated for 30 min at 37° C., and washed two times with DPBS. Fluorescence from each well was measured at 530 nm/590 nm (excitation/emission) and by 485 nm/535 nm (excitation/emission) separately using PerkinElmer Victor 1420. The ratio of red to green fluorescence is a measure of mitochondrial membrane potential and thus mitochondrial function directly.
Mitochondrial membrane polarization was monitored using the procedure described above. Cells were cultured in 24-well plates at 1×10^4 per well and incubated overnight. […] Fluorescence from each well was measured at 530 nm/590 nm (excitation/emission) and by 485 nm/535 nm (excitation/emission) separately using PerkinElmer Victor 1420.

purified rat liver FAS = biological target: T1, purified rat liver FAS (Rattus norvegicus, UniProt P12785); experiment: purified rat Type I FAS, spectrophotometric NADPH oxidation; format: biochemical
T1 construct: Highly purified rat FAS was obtained from starved and induced Sprague-Dawley rat livers; from tissue; host or cells: liver of starved and induced Sprague-Dawley rats
T1 sequence (P12785 whole entry): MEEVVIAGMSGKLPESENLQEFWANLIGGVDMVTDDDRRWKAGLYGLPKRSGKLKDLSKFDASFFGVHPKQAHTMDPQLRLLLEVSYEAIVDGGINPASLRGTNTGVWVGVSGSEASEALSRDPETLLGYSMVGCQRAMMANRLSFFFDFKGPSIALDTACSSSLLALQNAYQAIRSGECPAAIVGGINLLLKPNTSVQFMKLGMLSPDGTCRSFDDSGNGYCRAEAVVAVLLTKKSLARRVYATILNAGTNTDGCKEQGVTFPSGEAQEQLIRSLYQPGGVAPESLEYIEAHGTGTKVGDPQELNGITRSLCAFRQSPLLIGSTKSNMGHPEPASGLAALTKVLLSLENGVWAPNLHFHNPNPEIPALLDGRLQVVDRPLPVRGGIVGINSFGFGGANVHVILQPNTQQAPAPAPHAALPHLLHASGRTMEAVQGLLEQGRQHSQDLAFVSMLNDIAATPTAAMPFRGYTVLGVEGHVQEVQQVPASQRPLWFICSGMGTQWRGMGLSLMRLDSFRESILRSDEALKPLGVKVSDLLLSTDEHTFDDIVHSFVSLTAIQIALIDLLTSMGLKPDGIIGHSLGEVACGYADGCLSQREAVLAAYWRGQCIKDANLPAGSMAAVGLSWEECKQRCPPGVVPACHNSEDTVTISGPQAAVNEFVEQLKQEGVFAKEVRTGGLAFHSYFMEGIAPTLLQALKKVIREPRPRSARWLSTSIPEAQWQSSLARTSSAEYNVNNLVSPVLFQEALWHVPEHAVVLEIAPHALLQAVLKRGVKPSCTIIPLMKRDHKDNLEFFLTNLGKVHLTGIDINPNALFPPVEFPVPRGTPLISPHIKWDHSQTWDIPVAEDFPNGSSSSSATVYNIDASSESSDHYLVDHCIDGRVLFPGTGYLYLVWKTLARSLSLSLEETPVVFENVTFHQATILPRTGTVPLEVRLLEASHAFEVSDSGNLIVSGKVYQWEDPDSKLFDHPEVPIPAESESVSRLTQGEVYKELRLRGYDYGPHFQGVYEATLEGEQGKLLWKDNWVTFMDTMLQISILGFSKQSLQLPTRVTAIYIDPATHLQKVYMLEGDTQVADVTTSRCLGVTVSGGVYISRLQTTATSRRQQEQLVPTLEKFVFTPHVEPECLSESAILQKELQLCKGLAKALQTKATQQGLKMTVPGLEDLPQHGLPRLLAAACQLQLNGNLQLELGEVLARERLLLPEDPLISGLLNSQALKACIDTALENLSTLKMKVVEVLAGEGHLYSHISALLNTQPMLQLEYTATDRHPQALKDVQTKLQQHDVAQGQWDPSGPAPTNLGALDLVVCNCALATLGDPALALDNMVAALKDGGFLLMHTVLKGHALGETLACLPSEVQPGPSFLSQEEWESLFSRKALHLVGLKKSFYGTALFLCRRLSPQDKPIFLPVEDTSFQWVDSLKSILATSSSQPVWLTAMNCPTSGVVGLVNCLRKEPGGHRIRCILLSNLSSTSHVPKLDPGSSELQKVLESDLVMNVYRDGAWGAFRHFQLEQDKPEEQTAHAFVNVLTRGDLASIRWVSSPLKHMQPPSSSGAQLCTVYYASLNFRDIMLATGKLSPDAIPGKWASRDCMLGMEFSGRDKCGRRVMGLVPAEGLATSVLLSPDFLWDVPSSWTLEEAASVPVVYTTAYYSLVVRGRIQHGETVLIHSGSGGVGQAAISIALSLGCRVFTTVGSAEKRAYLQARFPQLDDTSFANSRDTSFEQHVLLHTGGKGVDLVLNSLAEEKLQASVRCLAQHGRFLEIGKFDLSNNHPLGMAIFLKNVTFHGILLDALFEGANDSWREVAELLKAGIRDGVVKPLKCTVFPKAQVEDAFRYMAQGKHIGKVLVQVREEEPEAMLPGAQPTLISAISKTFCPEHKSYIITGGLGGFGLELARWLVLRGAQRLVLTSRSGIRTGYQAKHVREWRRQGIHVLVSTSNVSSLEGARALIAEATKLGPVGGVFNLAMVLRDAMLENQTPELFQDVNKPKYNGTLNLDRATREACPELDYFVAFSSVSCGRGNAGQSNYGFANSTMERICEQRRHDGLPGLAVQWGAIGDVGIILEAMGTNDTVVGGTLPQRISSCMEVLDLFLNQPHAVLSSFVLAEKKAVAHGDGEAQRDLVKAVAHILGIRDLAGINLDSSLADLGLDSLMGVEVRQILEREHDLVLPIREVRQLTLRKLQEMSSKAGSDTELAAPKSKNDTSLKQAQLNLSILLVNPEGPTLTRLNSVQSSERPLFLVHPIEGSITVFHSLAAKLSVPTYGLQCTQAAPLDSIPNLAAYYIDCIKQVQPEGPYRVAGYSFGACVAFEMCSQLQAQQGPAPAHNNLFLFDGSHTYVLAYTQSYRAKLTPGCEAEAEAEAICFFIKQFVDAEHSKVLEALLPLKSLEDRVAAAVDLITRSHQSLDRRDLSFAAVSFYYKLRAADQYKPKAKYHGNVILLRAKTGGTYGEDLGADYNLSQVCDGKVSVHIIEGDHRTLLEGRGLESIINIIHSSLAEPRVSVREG
Method: Highly purified rat FAS was obtained from starved and induced Sprague-Dawley rat livers by slight modification of a published procedure.xx [Abraham, S.; Smith, S. Methods Enzymol. 1975, 35B, 65-73.]. Enzyme activity was assayed spectrophotometrically by measuring the decrease in extinction at 340 nm that accompanies the oxidation of NADPH during the overall reaction. The enzyme reaction mixture contained 100 mM KH2PO4 (pH 6.6), 1 mM EDTA, 1 mM dithiothreitol (DTT), 0.10 mM acetylCoA, 0.20 mM NADPH, ˜3 μg FAS and escalating concentrations of inhibitor to be tested were combined in a final volume of 1 mL and assayed at 37° C. for 5 min to monitor malonylCoA-independent oxidation of NADPH. FAS activity was then initiated by addition of 0.2 mM malonyl-CoA.

With `CCCCCCCCC1(C)SC(=O)C=C1OCC(=O)Nc1ccc(Cl)cc1` (stereo not shown) [Compound C31] as the compound, how does the ATP levels (MCF7 cells [1]; MCF7, 1 mM or 5 mM glucose, 1% or 21% oxygen, FIG. 10) read?
The ATP levels was “ATP levels declined in all of the cells”.

What about the ATP levels (MCF7 cells [1]; MCF7, standard medium 5 mM glucose, FIG. 5) of the same compound?
The ATP levels was “rapidly decreased”.

And the CC50 [2]?
The CC50 was 6 to 8.1 µg/mL (≈ 14.6 to 19.8 µM).

And the “mitochondrial membrane potential (JC-1 staining)” value (MCF7 cells [3]; MCF7, standard conditions, FIGS. 6, 7)?
The value was “rapid and profound effect on altering mitochondrial membrane potential”.

And the “mitochondrial membrane polarization (JC-1 staining)” value (MCF7 cells [3]; MCF7, varying glucose and oxygen, FIG. 11)?
Its value is “reductions in mitochondrial membrane polarization”.

What about the IC50 (purified rat liver FAS) of the same compound?
Its IC50 is 42 µM.

What about the IC50 (purified rat liver FAS; approximate) of the same compound?
Its IC50 is ~41 µM.
